From US4882322A, “3β,17β-hydroxy-substituted steroids and related steroidal compounds” (Merrell Dow Pharmaceuticals Inc., priority 1988, dated 1989)
Like-named read-outs stand apart in the source and are kept apart here.

Key:
[1] = test system: Aromatase Activity of JAr Tumor Xenografts in Nude Mice; assay: In vivo inhibition of aromatase activity of JAr tumor xenografts in nude mice; parameters: species or system human (JAr tumor cells) in athymic nude mice; conditions: vehicle PEG-200, 6 hr post-treatment
Procedure: (§1) In evaluating the inhibition of aromatase activity, the compounds of the present invention were tested according to the folowing procedure adapted from Johnston et al., J Steroid Biochem., Vol. 20, No. 6A, 1221 (1984) and Johnston, Steroids, Vol. 50, No. 1-3, 105 (1987). Athymic nude mice were subcutaneously injected with 1.5×10^6 human choriocarcinoma trophoblast (JAr) cells, which develop tumor masses of about 1 g in 10 days. Tumor aromatase activity was determined in vitro by measuring the ^3 H2 O resulting from the stereospecific release of 1-β ^3 H from 1-[^3 H]-androstenedione. Cytosol (800×g) from 35 mg of tumor was the source for both aromatase and 3β-steroid dehydrogenase (SDH):isomerase activity. The test compounds were incubated for varying intervals (0-3 hrs) with aromatase prior to the addition of 34 pmol 1-[3H]-androstenedione to start a 30 min aromatase activity assay. When 10-(2-propynyl)-19-norandrost-5-ene-3β,17β-diol was tested in vitro by this procedure the following results were observed:
The compound 10-(2-propynyl)-19-norandrost-5-ene-3β,17β-diol was also evaluated in vivo by treating nude mice with trophoblast tumors. At 6 hr post-treatment intervals, tumor aromatase activity was determined in an in vitro assay as discussed above. The vehicle for oral dosing was PEG-200.

JAr Tumor Aromatase = molecular target: T1, JAr Tumor Aromatase (Homo sapiens, UniProt P11511); assay: Time-dependent JAr tumor aromatase activity (in vitro inhibition; 3H2O release from 1-[3H]-androstenedione, cytosol of JAr tumor); format: biochemical; conditions: for inhibition at 5 µM: Conc. 5 μM; for inhibition at 5 µM / inhibition at 25 µM: read-out: Relative Percent Inhibition; for inhibition at 25 µM: Conc. 25 μM
T1 construct: from 35 mg of tumor was the source for both aromatase; from tissue; host or cells: Tumor grown from subcutaneously injected human JAr choriocarcinoma cells in athymic nude mice; 800×g supernatant ('cytosol')
T1 sequence (P11511 1-503): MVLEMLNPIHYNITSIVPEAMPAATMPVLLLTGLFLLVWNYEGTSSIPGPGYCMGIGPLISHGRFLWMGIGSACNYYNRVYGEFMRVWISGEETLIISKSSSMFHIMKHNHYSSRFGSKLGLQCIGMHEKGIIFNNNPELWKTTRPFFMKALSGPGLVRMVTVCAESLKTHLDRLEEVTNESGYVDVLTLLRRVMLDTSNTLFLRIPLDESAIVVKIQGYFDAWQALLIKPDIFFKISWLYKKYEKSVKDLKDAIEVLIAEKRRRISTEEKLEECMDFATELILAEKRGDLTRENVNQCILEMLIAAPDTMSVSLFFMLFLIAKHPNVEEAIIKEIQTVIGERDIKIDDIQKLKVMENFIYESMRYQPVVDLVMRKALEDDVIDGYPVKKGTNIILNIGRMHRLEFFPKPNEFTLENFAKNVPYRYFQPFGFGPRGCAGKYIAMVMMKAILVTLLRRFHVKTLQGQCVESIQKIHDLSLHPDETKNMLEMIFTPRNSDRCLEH
Procedure: The aromatase inhibitory action of the compounds of the present invention may be determined using a radioenzymatic assay. An aromatase enzyme preparation is employed from the microsomal fraction isolated from human placenta. Stereospecific elimination of 1β and 2β tritium labels from androgen substrates such as testosterone or androstenedione, and the subsequent appearance of tritated water, is utilized to measure the rate of enzyme reaction during in vitro incubations.
as §1, with “observed: […]” for “observed:”

With `C#CC[C@]12CC[C@H](O)CC1=CC[C@@H]1[C@@H]2CC[C@]2(C)[C@@H](O)CC[C@@H]12` [10-(2-propynyl)-19-norandrost-5-ene-3β,17β-diol] the “Relative % Inhibition 6 hr Post-treatment” value ([1]; 7 mg/kg oral) was 5.9 ± 3.0%, the “Relative % Inhibition 6 hr Post-treatment” value ([1]; 10 mg/kg oral) was 27.5 ± 1.5% and the “Relative % Inhibition 6 hr Post-treatment” value ([1]; 30 mg/kg oral) was 53.4 ± 7.8%. For the same molecule, the inhibition at 5 µM (JAr Tumor Aromatase; preincubation time 0 hr) was 15.1%, the inhibition at 5 µM (JAr Tumor Aromatase; preincubation time 1 hr) was 0% and the inhibition at 5 µM (JAr Tumor Aromatase; preincubation time 2 hr) was 66.9%. For the same molecule, the inhibition at 5 µM (JAr Tumor Aromatase; preincubation time 3 hr) was 71.9%, the inhibition at 25 µM (JAr Tumor Aromatase; preincubation time 0 hr) was 33.4% and the inhibition at 25 µM (JAr Tumor Aromatase; preincubation time 1 hr) was 0%. The inhibition at 25 µM (JAr Tumor Aromatase; preincubation time 2 hr) was 86.5%, the inhibition at 25 µM (JAr Tumor Aromatase; preincubation time 3 hr) was 84.9% and the “type of aromatase inhibition (biphase response)” value (JAr Tumor Aromatase; preincubation 0-3 hr, after enzymatic processing to a more reactive component) was “time-dependent inhibition of aromatase”.
